{"source": "ChEMBL document CHEMBL5634097", "about": "“A review: FDA-approved fluorine-containing small molecules from 2015 to 2022” (Eur J Med Chem, 2023)", "key": {"[1]": {"molecular_target": "Dual specificity mitogen-activated protein kinase kinase; MEK1/2 (Homo sapiens, UniProt P36507+Q02750)", "assay": "Inhibition of MEK1/2 (unknown origin)", "format": "protein assay"}, "[2]": {"molecular_target": "Replicase polyprotein 1ab (Severe acute respiratory syndrome coronavirus 2) (UniProt P0DTD1)", "assay": "Binding affinity to SARS-Cov-2 PLpro"}, "[3]": {"molecular_target": "Replicase polyprotein 1ab (Severe acute respiratory syndrome coronavirus 2) (UniProt P0DTD1)", "assay": "Binding affinity to SARS-Cov-2 Main protease"}, "[4]": {"molecular_target": "Spike glycoprotein (Severe acute respiratory syndrome coronavirus 2) (UniProt P0DTC2)", "assay": "Binding affinity to SARS-Cov-2 Spike protein"}, "[5]": {"assay": "Inhibition of CGRP (unknown origin)", "parameters": "species or system Homo sapiens"}, "[6]": {"assay": "Half life in rat", "format": "ADME", "details": "in vivo"}, "[7]": {"assay": "Half life in dog", "format": "ADME, Canis lupus familiaris", "details": "in vivo"}}}
{"smiles": "Cn1cnc2c(F)c(Nc3ccc(Br)cc3F)c(C(=O)NOCCO)cc21", "note": "[BINIMETINIB]", "values": [{"measurement": "IC50", "setting": "[1]", "value": 12, "unit": "nM"}]}
{"smiles": "CNC(=O)c1ccc(-c2cnc3ncc(Cc4ccc5ncccc5c4)n3n2)cc1F", "values": [{"measurement": "K", "setting": "[2]", "value": -7.7, "unit": "kcal/mol"}, {"measurement": "K", "setting": "[3]", "value": -9.3, "unit": "kcal/mol"}, {"measurement": "K", "setting": "[4]", "value": -7.7, "unit": "kcal/mol"}]}
{"smiles": "CN1CCN2c3c(cccc31)[C@@H]1CN(CCCC(=O)c3ccc(F)cc3)CC[C@@H]12", "note": "[LUMATEPERONE]", "values": [{"measurement": "IC50", "setting": "[5]", "value": 0.14, "unit": "nM"}, {"measurement": "half-life", "setting": "[6]", "value": "≤ 30", "unit": "h"}, {"measurement": "half-life", "setting": "[7]", "value": "≤ 30", "unit": "h"}]}
